Measured values published in ChEMBL document CHEMBL4483862, “Open-source discovery of chemical leads for next-generation chemoprotective antimalarials” (2018).

Tested on: Plasmodium berghei
Assay: Luciferase/luciferin-expressing antifolate-resistant parasites were used to infect a culture of HepG2 cells that were pre-incubated with compounds. Infected hepatocytes emit light due to the luciferase reaction. Assay results are presented as the percent inhibition of light emission compared to control. […]
Assay type: functional
Conditions: sporozoite; for IC90: read-out: LUCIFERASE INFECTION ASSAY - IC90

SMILES | IC90 [µM] | other results
COc1ccc(C2CC(=O)c3cnn(-c4nc(C)cc(C)n4)c3C2)cc1 (stereo not given) | 4.91 | IC50 (PBLUC_HILL_SLOPE 4.21, PBLUC_R_SQUARED 0.368, read-out: LUCIFERASE INFECTION ASSAY - IC50): 2.91 µM
Nc1ccccc1SC(CC(=O)c1ccccc1)c1ccc([N+](=O)[O-])cc1 (stereo not given) | > 8.72 | IC50 (PBLUC_HILL_SLOPE 4.35, PBLUC_R_SQUARED 0.338, read-out: LUCIFERASE INFECTION ASSAY - IC50): 8.12 µM
COc1cc(OC)nc(Nc2nc(C(N)Cc3ccccc3)cs2)n1 (stereo not given) | 7.54 | IC50 (PBLUC_HILL_SLOPE 4.21, PBLUC_R_SQUARED 0.584, read-out: LUCIFERASE INFECTION ASSAY - IC50): 4.47 µM
NC(c1csc(Nc2ccc(C(F)(F)F)cn2)n1)C1CCCCC1 (stereo not given) | > 9.26 | IC50 (PBLUC_HILL_SLOPE 4.28, PBLUC_R_SQUARED 0.42, read-out: LUCIFERASE INFECTION ASSAY - IC50): 7.59 µM
CN1/C(=C\C=N\NC(=O)c2cccnc2)C(C)(C)c2ccccc21 | > 10 | IC50 (PBLUC_HILL_SLOPE 4.32, PBLUC_R_SQUARED 0.562, read-out: LUCIFERASE INFECTION ASSAY - IC50): 7.23 µM
Cc1ccc(C(NCC(=O)Nc2sccc2C(N)=O)c2cccs2)cc1 (stereo not given) | 3.67 | IC50 (PBLUC_HILL_SLOPE 4.31, PBLUC_R_SQUARED 0.32, read-out: LUCIFERASE INFECTION ASSAY - IC50): 2.2 µM
COc1cccc(CN2CCc3c(c(C(=O)NCCCc4ccccc4)nn3Cc3ccncc3)C2)c1 | 5.47 | IC50 (PBLUC_HILL_SLOPE 4.39, PBLUC_R_SQUARED 0.179, read-out: LUCIFERASE INFECTION ASSAY - IC50): 3.31 µM
Cc1ccc2nc(NC(=O)C(C)Oc3ccccc3)c(C(=O)NC3CCCC3)n2c1 (stereo not given) | 6.95 | IC50 (PBLUC_HILL_SLOPE 4.38, PBLUC_R_SQUARED 0.362, read-out: LUCIFERASE INFECTION ASSAY - IC50): 4.21 µM
Cc1nc(SCC(=O)Nc2ccccc2C#N)c2c(-c3cccs3)csc2n1 | > 10 | IC50 (PBLUC_HILL_SLOPE 4.22, PBLUC_R_SQUARED 0.391, read-out: LUCIFERASE INFECTION ASSAY - IC50): 6.05 µM
COC(=O)c1c(NC(=O)c2ccco2)c2cc(NC3CCN(C(C)C)CC3)cnc2n1CCC(C)C | > 6.66 | IC50 (PBLUC_HILL_SLOPE 4.28, PBLUC_R_SQUARED 0.61, read-out: LUCIFERASE INFECTION ASSAY - IC50): 4.64 µM
CC(Oc1ccc(Cl)cc1Cl)C(=O)Nc1nc(-c2c[nH]c(C(N)=O)c2)cs1 (stereo not given) | 2.99 | IC50 (PBLUC_HILL_SLOPE 4.28, PBLUC_R_SQUARED 0.703, read-out: LUCIFERASE INFECTION ASSAY - IC50): 1.79 µM
Cn1/c(=N/NC=C2CCC/C(=C/c3ccccc3)C2=O)sc2ccccc21 | > 10 | IC50 (PBLUC_HILL_SLOPE 4.26, PBLUC_R_SQUARED 0.398, read-out: LUCIFERASE INFECTION ASSAY - IC50): 8.32 µM
COc1ccc(-c2csc3ncnc(NCC4(N5CCOCC5)CCCCC4)c23)cc1 | 9.48 | IC50 (PBLUC_HILL_SLOPE 4.26, PBLUC_R_SQUARED 0.161, read-out: LUCIFERASE INFECTION ASSAY - IC50): 5.66 µM
Cn1cc(-c2cn3c(-c4ccc(C#N)cc4)cnc3cn2)cn1 | > 11 | IC50 (PBLUC_HILL_SLOPE 4.44, PBLUC_R_SQUARED 0.515, read-out: LUCIFERASE INFECTION ASSAY - IC50): 9.55 µM
N#Cc1ccc(-c2cnc3cnc(/C=C/c4ccccc4)cn23)cc1 | 1.49 | IC50 (PBLUC_HILL_SLOPE 4.44, PBLUC_R_SQUARED 0.805, read-out: LUCIFERASE INFECTION ASSAY - IC50): 0.909 µM
CC(C)(C)c1ccccc1NC(=O)Nc1nc(C(N)Cc2ccc(Cl)cc2)cs1 (stereo not given) | 5.51 | IC50 (PBLUC_HILL_SLOPE 4.24, PBLUC_R_SQUARED 0.754, read-out: LUCIFERASE INFECTION ASSAY - IC50): 3.28 µM
O=C(Nc1nc(-c2ccccn2)cs1)c1nn(-c2ccc(F)cc2)c2c1CCCC2 | 8.94 | IC50 (PBLUC_HILL_SLOPE 4.43, PBLUC_R_SQUARED 0.595, read-out: LUCIFERASE INFECTION ASSAY - IC50): 5.45 µM
O=C(c1cn2ccccc2n1)N1CCN(C(c2ccccc2)c2ccccc2)CC1 | > 10 | IC50 (PBLUC_HILL_SLOPE 4.26, PBLUC_R_SQUARED 0.0991, read-out: LUCIFERASE INFECTION ASSAY - IC50): 6.51 µM
Oc1c(Br)cc(Cl)cc1/C=C/c1ccc2cccc(O)c2n1 | > 8.76 | IC50 (PBLUC_HILL_SLOPE 4.36, PBLUC_R_SQUARED 0.823, read-out: LUCIFERASE INFECTION ASSAY - IC50): 5.59 µM
NC(=O)c1ccc(Nc2nc(-c3cccnc3)nc3ccccc23)cc1 | > 10 | IC50 (PBLUC_HILL_SLOPE 4.21, PBLUC_R_SQUARED 0.0982, read-out: LUCIFERASE INFECTION ASSAY - IC50): > 10 µM

SMILES | IC90 [µM] | other results
CS(=O)(=O)c1ccc(-c2cnc3c(NC=O)cc(-c4ccccc4)cn23)cc1 | > 8.43 | IC50 (PBLUC_HILL_SLOPE 4.26, PBLUC_R_SQUARED 0.756, read-out: LUCIFERASE INFECTION ASSAY - IC50): 6.43 µM
CCOc1cccc(-c2cn3c(-c4ccc(C#N)cc4)cnc3cn2)c1 | > 9.69 | IC50 (PBLUC_HILL_SLOPE 4.27, PBLUC_R_SQUARED 0.47, read-out: LUCIFERASE INFECTION ASSAY - IC50): 6.18 µM
CC(C)Cc1nc2oc3c(NCCO)ncnc3c2c2c1CCCC2 | > 9.69 | IC50 (PBLUC_HILL_SLOPE 4.31, PBLUC_R_SQUARED 0.188, read-out: LUCIFERASE INFECTION ASSAY - IC50): 6.98 µM
CCN(c1ccccc1)S(=O)(=O)c1cc(-c2oc3ccc(F)cc3c(=O)c2C)ccc1C | > 10 | IC50 (PBLUC_HILL_SLOPE 4.38, PBLUC_R_SQUARED 0.421, read-out: LUCIFERASE INFECTION ASSAY - IC50): 6.53 µM
FC(F)(F)Oc1ccc(Nc2nnc(Sc3ncnc4ccsc34)s2)cc1 | > 10 | IC50 (PBLUC_HILL_SLOPE 4.22, PBLUC_R_SQUARED 0.601, read-out: LUCIFERASE INFECTION ASSAY - IC50): 6.4 µM
CCNC(=O)c1cccc(Nc2ccc(C(=O)c3ccccc3)cc2)c1 | 8.6 | IC50 (PBLUC_HILL_SLOPE 4.36, PBLUC_R_SQUARED 0.612, read-out: LUCIFERASE INFECTION ASSAY - IC50): 5.2 µM
O=C(NC1CC1)c1ccc(-c2cnc3cnc(-c4ccc(CNc5ccccc5)cc4)cn23)cc1 | > 7.18 | IC50 (PBLUC_HILL_SLOPE 4.2, PBLUC_R_SQUARED 0.624, read-out: LUCIFERASE INFECTION ASSAY - IC50): 4.59 µM
CC(C)N(CCNC(=O)c1ccc(CSc2nc3ccccc3s2)cc1)C(C)C | 9.07 | IC50 (PBLUC_HILL_SLOPE 4.35, PBLUC_R_SQUARED 0.48, read-out: LUCIFERASE INFECTION ASSAY - IC50): 5.47 µM
COc1ccc(-c2cnc3cnc(-c4ccc(N5CCN(C)CC5)cc4)cn23)cc1 | > 8.26 | IC50 (PBLUC_HILL_SLOPE 4.21, PBLUC_R_SQUARED 0.0945, read-out: LUCIFERASE INFECTION ASSAY - IC50): 6.36 µM
N#Cc1cccc(Nc2nc(C(F)(F)F)nc3ccccc23)c1 | > 10 | IC50 (PBLUC_HILL_SLOPE 4.2, PBLUC_R_SQUARED 0.258, read-out: LUCIFERASE INFECTION ASSAY - IC50): 8.32 µM
CC(c1ccccc1)n1c(SCCSc2cc(Cl)ccc2Cl)nc2ccccc2c1=O (stereo not given) | > 10 | IC50 (PBLUC_HILL_SLOPE 4.25, PBLUC_R_SQUARED 0.473, read-out: LUCIFERASE INFECTION ASSAY - IC50): 6.21 µM
COc1ccc(/C=C2\CCCC3C2=NN(C(=O)Cn2cc(C(F)(F)F)ccc2=O)C3c2ccc(OC)cc2)cc1 (stereo not given) | 8.1 | IC50 (PBLUC_HILL_SLOPE 4.26, PBLUC_R_SQUARED 0.126, read-out: LUCIFERASE INFECTION ASSAY - IC50): 4.84 µM
CCCOc1ccc(/C=N/NC(=S)NCCCN2CCOCC2)c(OCCC)c1 | > 10 | IC50 (PBLUC_HILL_SLOPE 4.29, PBLUC_R_SQUARED 0.235, read-out: LUCIFERASE INFECTION ASSAY - IC50): 8.13 µM
CCCCCC(/C=N/Nc1nncc2ccccc12)=C\c1ccccc1 | 9.96 | IC50 (PBLUC_HILL_SLOPE 4.26, PBLUC_R_SQUARED 0.663, read-out: LUCIFERASE INFECTION ASSAY - IC50): 5.95 µM
CCN1C(=O)N(CCc2ccccc2)C2(CCN(Cc3ccc(C)cc3)CC2)C1=O | > 8.14 | IC50 (PBLUC_HILL_SLOPE 4.45, PBLUC_R_SQUARED 0.239, read-out: LUCIFERASE INFECTION ASSAY - IC50): 6.04 µM
CN(CCOc1ccc(Br)cc1)C(=O)c1[nH]nc2ccccc12 | > 10 | IC50 (PBLUC_HILL_SLOPE 4.37, PBLUC_R_SQUARED 0.302, read-out: LUCIFERASE INFECTION ASSAY - IC50): 6.76 µM
COCOc1ccc(-c2cc(-c3cccc(NC(C)=O)c3)cnc2N)cc1 | 5.97 | IC50 (PBLUC_HILL_SLOPE 4.33, PBLUC_R_SQUARED 0.629, read-out: LUCIFERASE INFECTION ASSAY - IC50): 3.59 µM
O=[N+]([O-])c1ccc(C2Nc3ccc(F)cc3N2)s1 (stereo not given) | 6.65 | IC50 (PBLUC_HILL_SLOPE 4.41, PBLUC_R_SQUARED 0.496, read-out: LUCIFERASE INFECTION ASSAY - IC50): 4.04 µM
COc1ccc2nc3cc(Cl)ccc3c(N(C)CCc3ccc(OC)c(OC)c3)c2c1 | 0.33 | IC50 (PBLUC_HILL_SLOPE 4.42, PBLUC_R_SQUARED 0.447, read-out: LUCIFERASE INFECTION ASSAY - IC50): 0.201 µM
COc1cc(-c2cc(-c3cc(OC)c(OC)c(OC)c3)cnc2N)ccc1O | 6.84 | IC50 (PBLUC_HILL_SLOPE 4.32, PBLUC_R_SQUARED 0.78, read-out: LUCIFERASE INFECTION ASSAY - IC50): 4.12 µM
